From patent US8445008B2, “Reduction of infection associated with medical device” (Medtronic, Inc., priority 2008, dated 2013)
In brackets after ≈: the same amount, converted by molar mass.

Columns and labels:
[1] = Solubility in extraction/HPLC solvents; format: physicochemical
S. aureus = test: Minimum inhibitory concentration against the S. aureus strain used in the studies; format: cell-based; conditions: Staphylococcus aureus; strain of S. aureus used in the studies

SMILES: CO[C@H]1/C=C/O[C@@]2(C)Oc3c(C)c(O)c4c(O)c(c(/C=N/N5CCN(C)CC5)c(O)c4c3C2=O)NC(=O)/C(C)=C\C=C\[C@H](C)[C@H](O)[C@@H](C)[C@@H](O)[C@@H](C)[C@H](OC(C)=O)[C@@H]1C [rifampin]
- solubility in methanol and THF/ethanol 4:1 [1]: good solubility
- MIC (S. aureus): 0.06 µg/mL (≈ 0.0729 µM)
